Results reported in PubChem BioAssay AID1259411 (Chemical Carcinogenesis Research Information System (CCRIS), 2018).
Active and inactive are the calls of the source. The rule behind the calls is not given here.

Test system: rodent carcinogenicity bioassays, tumor incidence
Assay: CCRIS carcinogenicity studies
How it was run: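 NCI-built, expert-reviewed records of carcinogenicity and related test outcomes (mutagenicity, tumor promotion/inhibition) compiled from published and report sources, historical span 1985-2011, not updated.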

With CCN=c1cc2oc3cc(NCC)c(C)cc3c(-c3ccccc3C(=O)OCC)c-2cc1C the carcinogen call (Species: MOUSE, Strain/Sex: B6C3F1/FEMALE, Route: ORAL, Dose: 0, 500, 1000 PPM IN FEED FOR 103 WK (STUDY DURATION: 105 WK), Dose: 0, 500, 1000 PPM IN FEED FOR 103 WK (STUDY DURATION: 105 WK)) was “inactive; negative”, the carcinogen call (Species: MOUSE, Strain/Sex: B6C3F1/MALE, Route: ORAL, Dose: 0, 1000, 2000 PPM IN FEED FOR 103 WK (STUDY DURATION: 105 WK), Dose: 0, 1000, 2000 PPM IN FEED FOR 103 WK (STUDY DURATION: 105 WK)) was “inactive; negative” and the carcinogen call (Species: RAT, Strain/Sex: F344/FEMALE, Route: ORAL, Dose: 0, 120, 250 PPM IN FEED FOR 103 WK (STUDY DURATION: 105 WK), Dose: 0, 120, 250 PPM IN FEED FOR 103 WK (STUDY DURATION: 105 WK), Tumor Site: Type of Lesion: ADRENAL GLAND: PHEOCHROMOCYTOMA OR MALIGNANT PHEOCHROMOCYTOMA) was “equivocal”. The carcinogen call (Species: RAT, Strain/Sex: F344/MALE, Route: ORAL, Dose: 0, 120, 250 PPM IN FEED FOR 103 WK (STUDY DURATION: 105 WK), Dose: 0, 120, 250 PPM IN FEED FOR 103 WK (STUDY DURATION: 105 WK), Tumor Site: Type of Lesion: INTEGUMENTARY SYSTEM: KERATOACANTHOMA) was “equivocal”.

CCN(CC)c1ccc(C(=C2C=CC(=[N+](CC)CC)C=C2)c2ccc(S(=O)(=O)O)cc2S(=O)(=O)[O-])cc1 was tested, and the carcinogen call (Species: RAT, Route: SUBCUTANEOUS, INTRAMUSCULAR, Tumor Site: Type of Lesion: INJECTION SITE) was “active; positive”.

With CC1CC(C)(C)CC(OOC(C)(C)C)(OOC(C)(C)C)C1 (stereo not given) the carcinogen call (Species: MOUSE, Strain/Sex: B6C3F1/FEMALE, Route: ORAL, Dose: 0, 0.25, 0.5% IN DIET FOR 78 WK (STUDY DURATION: 83 WK), Dose: 0, 0.25, 0.5% IN DIET FOR 78 WK (STUDY DURATION: 83 WK)) was “inactive; negative” and the carcinogen call (Species: MOUSE, Strain/Sex: B6C3F1/MALE, Route: ORAL, Dose: 0, 0.25, 0.5% IN DIET FOR 78 WK (STUDY DURATION: 83 WK), Dose: 0, 0.25, 0.5% IN DIET FOR 78 WK (STUDY DURATION: 83 WK)) was “inactive; negative”.

In the case of ClC#CCl, the carcinogen call (Species: MOUSE, Strain/Sex: NMRI/FEMALE, Route: INHALATION, Dose: 0, 2 PPM 6 HR/D 1 D/WK FOR 18 MO (STUDY DURATION: LIFE), Tumor Site: Type of Lesion: KIDNEY: CYSTADENOMA, LUNG: ADENOMA, HARDERIAN GLAND: CYSTADENOMA, Tumor Site: Type of Lesion: KIDNEY: CYSTADENOMA, LUNG: ADENOMA, HARDERIAN GLAND: CYSTADENOMA) was “active; positive”, the carcinogen call (Species: MOUSE, Strain/Sex: NMRI/FEMALE, Route: INHALATION, Dose: 0, 2 PPM 6 HR/D 2 D/WK FOR 18 MO (STUDY DURATION: LIFE), Tumor Site: Type of Lesion: HARDERIAN GLAND: CYSTADENOMA) was “active; positive” and the carcinogen call (Species: MOUSE, Strain/Sex: NMRI/FEMALE, Route: INHALATION, Dose: 0, 9 PPM 6 HR/D 1 D/WK FOR 12 MO (STUDY DURATION: LIFE), Tumor Site: Type of Lesion: KIDNEY: CYSTADENOMA, HARDERIAN GLAND: CYSTADENOMA) was “active; positive”. For the same molecule, the carcinogen call (Species: MOUSE, Strain/Sex: NMRI/MALE, Route: INHALATION, Dose: 0, 2 PPM 6 HR/D 1 D/WK FOR 18 MO (STUDY DURATION: LIFE), Tumor Site: Type of Lesion: KIDNEY: CYSTADENOMA, CYSTADENOCARCINOMA, HARDERIAN GLAND: CYSTADENOMA) was “active; positive”, the carcinogen call (Species: MOUSE, Strain/Sex: NMRI/MALE, Route: INHALATION, Dose: 0, 2 PPM 6 HR/D 2 D/WK FOR 18 MO (STUDY DURATION: LIFE), Tumor Site: Type of Lesion: KIDNEY: CYSTADENOMA, HARDERIAN GLAND: CYSTADENOMA) was “active; positive” and the carcinogen call (Species: MOUSE, Strain/Sex: NMRI/MALE, Route: INHALATION, Dose: 0, 9 PPM 6 HR/D 1 D/WK FOR 12 MO (STUDY DURATION: LIFE), Tumor Site: Type of Lesion: KIDNEY: CYSTADENOMA, CYSTADENOCARCINOMA) was “active; positive”. The carcinogen call (Species: RAT, Strain/Sex: WISTAR/FEMALE, Route: INHALATION, Dose: 0, 14 PPM 6 HR/D 2 D/WK FOR 18 MO (STUDY DURATION: LIFE), Tumor Site: Type of Lesion: KIDNEY: CYSTADENOMA, LIVER: CHOLANGIOMA, HEMOPOIETIC SYSTEM: MALIGNANT LYMPHOMA, Tumor Site: Type of Lesion: KIDNEY: CYSTADENOMA, LIVER: CHOLANGIOMA, HEMOPOIETIC SYSTEM: MALIGNANT LYMPHOMA) was “active; positive” and the carcinogen call (Species: RAT, Strain/Sex: WISTAR/MALE, Route: INHALATION, Dose: 0, 14 PPM 6 HR/D 2 D/WK FOR 18 MO (STUDY DURATION: LIFE), Tumor Site: Type of Lesion: KIDNEY: CYSTADENOMA, LIVER: CHOLANGIOMA) was “active; positive”.

CC(Cl)Cl was tested, and the carcinogen call (Species: MOUSE, Strain/Sex: B6C3F1/FEMALE, Route: GAVAGE, Dose: 0, 1665, 3331 MG/KG 5/WK FOR 78 WK (STUDY DURATION: 91 WK), Dose: 0, 1665, 3331 MG/KG 5/WK FOR 78 WK (STUDY DURATION: 91 WK), Tumor Site: Type of Lesion: UTERUS: ENDOMETRIAL STROMAL POLYP) was “equivocal”, the carcinogen call (Species: MOUSE, Strain/Sex: B6C3F1/MALE, Route: GAVAGE, Dose: 0, 1,442, 2,885 MG/KG 5/WK FOR 78 WK (STUDY DURATION: 91 WK), Dose: 0, 1,442, 2,885 MG/KG 5/WK FOR 78 WK (STUDY DURATION: 91 WK)) was “inactive; negative” and the carcinogen call (Species: RAT, Strain/Sex: OSBORNE-MENDEL/FEMALE, Route: GAVAGE, Dose: 0, 475, 950 MG/KG 5/WK FOR 78 WK (STUDY DURATION: 111 WK), Dose: 0, 475, 950 MG/KG 5/WK FOR 78 WK (STUDY DURATION: 111 WK), Tumor Site: Type of Lesion: MAMMARY GLAND: ADENOCARCINOMA, LUNG: HEMANGIOSARCOMA, SPLEEN: HEMANGIOSARCOMA, Tumor Site: Type of Lesion: MAMMARY GLAND: ADENOCARCINOMA, LUNG: HEMANGIOSARCOMA, SPLEEN: HEMANGIOSARCOMA) was “equivocal”. For the same molecule, the carcinogen call (Species: RAT, Strain/Sex: OSBORNE-MENDEL/MALE, Route: GAVAGE, Dose: 0, 382, 764 MG/KG 5/WK FOR 78 WK (STUDY DURATION: 111 WK), Dose: 0, 382, 764 MG/KG 5/WK FOR 78 WK (STUDY DURATION: 111 WK)) was “inactive; negative”.

With O=S(=O)(O)NC1CCCCC1 the carcinogen call (Species: MONKEY, Strain/Sex: CYNOMOLGUS, RHESUS, AFRICAN GREEN/MALE, FEMALE, Route: ORAL, Dose: 0, 100, 500 MG/KG IN DIET FOR 24 YR (STUDY DURATION: 24 YR), Dose: 0, 100, 500 MG/KG IN DIET FOR 24 YR (STUDY DURATION: 24 YR)) was “inactive; negative”, the carcinogen call (Species: RAT, Strain/Sex: ALBINO/MALE,FEMALE, Route: SUBCUTANEOUS, Dose: 5, 15% IN AQ SOLN 3/WK FOR 85 OR 107 WK, Tumor Site: Type of Lesion: INJECTION SITE: FIBROSARCOMA) was “active; positive” and the carcinogen call (Species: RAT, Strain/Sex: SPRAGUE-DAWLEY/MALE,FEMALE, Route: ORAL, Dose: 2, 5% IN DIET PRENATALLY AND FOR LIFE) was “inactive; negative”.

In the case of OC[C@@H](O)[C@@H](O)[C@H](O)[C@H](O)CO, the carcinogen call (Species: MOUSE, Strain/Sex: B6C3F1/FEMALE, Route: ORAL, Dose: 0, 2.5, 5% IN THE DIET FOR 103 WK (STUDY DURATION: 103 WK), Dose: 0, 2.5, 5% IN THE DIET FOR 103 WK (STUDY DURATION: 103 WK)) was “inactive; negative”, the carcinogen call (Species: MOUSE, Strain/Sex: B6C3F1/FEMALE, Route: ORAL, Dose: 0, 25000, 50000 PPM IN DIET, Dose: 0, 25000, 50000 PPM IN DIET) was “inactive; negative” and the carcinogen call (Species: MOUSE, Strain/Sex: B6C3F1/MALE, Route: ORAL, Dose: 0, 2.5, 5% IN THE DIET FOR 103 WK (STUDY DURATION: 103 WK), Dose: 0, 2.5, 5% IN THE DIET FOR 103 WK (STUDY DURATION: 103 WK)) was “inactive; negative”. The carcinogen call (Species: MOUSE, Strain/Sex: B6C3F1/MALE, Route: ORAL, Dose: 0, 25000, 50000 PPM IN DIET, Dose: 0, 25000, 50000 PPM IN DIET) was “inactive; negative”, the carcinogen call (Species: RAT, Strain/Sex: F344/FEMALE, Route: ORAL, Dose: 0, 2.5, 5% IN THE DIET FOR 103 WK (STUDY DURATION: 103 WK), Dose: 0, 2.5, 5% IN THE DIET FOR 103 WK (STUDY DURATION: 103 WK)) was “inactive; negative” and the carcinogen call (Species: RAT, Strain/Sex: F344/FEMALE, Route: ORAL, Dose: 0, 25000, 50000 PPM IN DIET, Dose: 0, 25000, 50000 PPM IN DIET) was “inactive; negative”. The carcinogen call (Species: RAT, Strain/Sex: F344/MALE, Route: ORAL, Dose: 0, 2.5, 5% IN THE DIET FOR 103 WK (STUDY DURATION: 103 WK), Dose: 0, 2.5, 5% IN THE DIET FOR 103 WK (STUDY DURATION: 103 WK)) was “inactive; negative” and the carcinogen call (Species: RAT, Strain/Sex: F344/MALE, Route: ORAL, Dose: 0, 25000, 50000 PPM IN DIET, Dose: 0, 25000, 50000 PPM IN DIET) was “inactive; negative”.
